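Exposure lasted 48 hours, with cells grown in 96-well plates and compounds tested at five concentrations. At the GI50, growth is halved.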 Active and inactive are the calls of the source. Rule as the data show it: active = GI50 up to about 1.1 µM and inactive = higher.
Experiments:
Assay in all cases: growth of human tumour cells (NCI), 48 h
MDA-N = test system: MDA-N
NCI-H226 = test system: NCI-H226
OVCAR-5 = test system: OVCAR-5
MDA-MB-435 = test system: MDA-MB-435
OVCAR-8 = test system: OVCAR-8
SF-295 = test system: SF-295
M14 = test system: M14
HOP-62 = test system: HOP-62
786-0 = test system: 786-0
KM12 = test system: KM12
SF-539 = test system: SF-539
MOLT-4 = test system: MOLT-4
T47D = test system: T47D
HCT-116 = test system: HCT-116
BT-549 = test system: BT-549
ACHN = test system: ACHN
TK-10 = test system: TK-10
K562 = test system: K562
HL-60 = test system: HL-60

Row | SMILES | GI50 (MDA-N) | GI50 (NCI-H226) | GI50 (OVCAR-5) | GI50 (MDA-MB-435) | GI50 (OVCAR-8) | GI50 (SF-295) | GI50 (M14) | GI50 (HOP-62) | GI50 (786-0) | GI50 (KM12) | GI50 (SF-539) | GI50 (MOLT-4) | GI50 (T47D) | GI50 (HCT-116) | GI50 (BT-549) | GI50 (ACHN) | GI50 (TK-10) | GI50 (K562) | GI50 (HL-60)
1 | COc1cc2cc(C(=O)N3CC(CCl)c4c3cc([N+](=O)[O-])c3ccccc43)[nH]c2c(OC)c1OC (configuration not stated) | > 100 µM (inactive) | > 100 µM (inactive) | 25.6 µM (inactive) | > 100 µM (inactive) | 12.8 µM (inactive) | 14.7 µM (inactive) | 46.6 µM (inactive) | 8.91 µM (inactive) | 29.3 µM (inactive) | > 62.8 µM (inactive) | 25.8 µM (inactive) | 13.8 µM (inactive) | > 66.8 µM (inactive) | 27 µM (inactive) | > 100 µM (inactive) | 11.2 µM (inactive) | > 100 µM (inactive) | 15.3 µM (inactive) | –
2 | O=C(N[C@@H](c1ccccc1)[C@@H](O)C(=O)OCc1ccc([N+](=O)[O-])cc1)c1ccccc1 | > 100 µM (inactive) | > 100 µM (inactive) | > 100 µM (inactive) | > 100 µM (inactive) | > 100 µM (inactive) | > 10 µM (inactive) | – | > 100 µM (inactive) | > 100 µM (inactive) | > 100 µM (inactive) | > 100 µM (inactive) | 25.8 µM (inactive) | > 100 µM (inactive) | > 100 µM (inactive) | > 100 µM (inactive) | > 100 µM (inactive) | > 100 µM (inactive) | 51.3 µM (inactive) | –
3 | C/C(=N\Nc1nc2ccccc2s1)c1ccc2ccccc2n1 | > 100 µM (inactive) | – | 91 µM (inactive) | > 100 µM (inactive) | > 100 µM (inactive) | > 100 µM (inactive) | 46.2 µM (inactive) | > 100 µM (inactive) | > 100 µM (inactive) | 59.2 µM (inactive) | 58.7 µM (inactive) | – | 5.36 µM (inactive) | > 100 µM (inactive) | > 100 µM (inactive) | > 100 µM (inactive) | 88.7 µM (inactive) | – | 23.2 µM (inactive)
4 | COc1cc(C2SCC(=O)N2c2ccc(Oc3ccc(Cl)cc3)c(Cl)c2)cc(OC)c1OC (configuration not stated) | 20 µM (inactive) | 15.8 µM (inactive) | 23.2 µM (inactive) | 16 µM (inactive) | 17 µM (inactive) | 16.4 µM (inactive) | 29.9 µM (inactive) | 20.4 µM (inactive) | 18.3 µM (inactive) | 19.8 µM (inactive) | 22.8 µM (inactive) | 8.04 µM (inactive) | 10.3 µM (inactive) | 18.7 µM (inactive) | 16.5 µM (inactive) | 30.9 µM (inactive) | 17.6 µM (inactive) | 33.4 µM (inactive) | –
5 | C=C1CN2CC(=C)CN(C1)CS(=O)(=O)N1CC(=C)CN(CC(=C)C1)S(=O)(=O)N1CC(=C)CN(CC(=C)C1)S(=O)(=O)C2 | 52.5 µM (inactive) | 27.7 µM (inactive) | 56.8 µM (inactive) | 43.9 µM (inactive) | 40 µM (inactive) | 31.9 µM (inactive) | 37.6 µM (inactive) | 20.6 µM (inactive) | 18.7 µM (inactive) | 40.4 µM (inactive) | 15.6 µM (inactive) | 67.1 µM (inactive) | – | 51.3 µM (inactive) | 78.5 µM (inactive) | 47.1 µM (inactive) | 22.1 µM (inactive) | 56.5 µM (inactive) | 35 µM (inactive)
6 | Clc1ccc(C2ON=C(c3ccccc3)N2C23CC4CC(CC(C4)C2)C3)cc1Cl (configuration not stated) | > 10 µM (inactive) | > 10 µM (inactive) | > 10 µM (inactive) | > 10 µM (inactive) | > 10 µM (inactive) | > 10 µM (inactive) | > 10 µM (inactive) | > 10 µM (inactive) | > 10 µM (inactive) | > 10 µM (inactive) | > 10 µM (inactive) | > 10 µM (inactive) | > 10 µM (inactive) | > 10 µM (inactive) | > 10 µM (inactive) | > 10 µM (inactive) | > 10 µM (inactive) | > 10 µM (inactive) | –
7 | Cc1cc([N+](=O)[O-])c(C)c(Br)c1C | > 100 µM (inactive) | > 100 µM (inactive) | > 100 µM (inactive) | > 100 µM (inactive) | > 100 µM (inactive) | > 100 µM (inactive) | > 100 µM (inactive) | > 100 µM (inactive) | > 100 µM (inactive) | > 100 µM (inactive) | > 100 µM (inactive) | – | 71 µM (inactive) | > 100 µM (inactive) | > 100 µM (inactive) | > 100 µM (inactive) | > 100 µM (inactive) | > 100 µM (inactive) | –
8 | CCOP(=O)(OCC)/C(C#N)=C/c1cccn1C(C)C | > 100 µM (inactive) | > 100 µM (inactive) | > 100 µM (inactive) | > 100 µM (inactive) | > 100 µM (inactive) | > 100 µM (inactive) | > 100 µM (inactive) | > 100 µM (inactive) | > 100 µM (inactive) | > 100 µM (inactive) | > 100 µM (inactive) | > 100 µM (inactive) | > 100 µM (inactive) | > 100 µM (inactive) | > 100 µM (inactive) | > 100 µM (inactive) | > 100 µM (inactive) | > 100 µM (inactive) | –
9 | O=C(Cn1c2c(c3ccccc31)CCCC2)N1CCOCC1 | > 100 µM (inactive) | – | 87.3 µM (inactive) | > 100 µM (inactive) | > 100 µM (inactive) | > 100 µM (inactive) | > 100 µM (inactive) | > 100 µM (inactive) | > 100 µM (inactive) | – | > 100 µM (inactive) | > 100 µM (inactive) | – | > 100 µM (inactive) | > 100 µM (inactive) | > 100 µM (inactive) | > 100 µM (inactive) | > 100 µM (inactive) | > 100 µM (inactive)
10 | N#CC1=C2Sc3ccccc3N2[C@H](c2ccccc2)[C@H]2COC(=O)[C@@H]12 | > 100 µM (inactive) | > 100 µM (inactive) | > 100 µM (inactive) | > 100 µM (inactive) | > 100 µM (inactive) | > 100 µM (inactive) | 52.4 µM (inactive) | > 100 µM (inactive) | > 100 µM (inactive) | 63.2 µM (inactive) | > 100 µM (inactive) | 33.5 µM (inactive) | 35.6 µM (inactive) | > 100 µM (inactive) | 27.9 µM (inactive) | > 100 µM (inactive) | 38.9 µM (inactive) | – | –
11 | CC(=O)N1N=C(c2ccc3ccccc3c2O)CC1C(=O)c1ccco1 (configuration not stated) | 20.6 µM (inactive) | 33.7 µM (inactive) | 28.6 µM (inactive) | 14.7 µM (inactive) | 25.5 µM (inactive) | 24 µM (inactive) | 19.3 µM (inactive) | 30.6 µM (inactive) | 45 µM (inactive) | 10.8 µM (inactive) | 26.1 µM (inactive) | 5.62 µM (inactive) | 40.6 µM (inactive) | 28.6 µM (inactive) | 30.3 µM (inactive) | 19.2 µM (inactive) | 30.3 µM (inactive) | 11.6 µM (inactive) | –
12 | CCOC(=O)Nn1cnnc1Cc1ccccc1 | > 100 µM (inactive) | > 100 µM (inactive) | > 100 µM (inactive) | > 100 µM (inactive) | > 100 µM (inactive) | > 100 µM (inactive) | > 100 µM (inactive) | > 100 µM (inactive) | > 100 µM (inactive) | > 100 µM (inactive) | > 100 µM (inactive) | > 100 µM (inactive) | > 100 µM (inactive) | > 100 µM (inactive) | > 100 µM (inactive) | > 100 µM (inactive) | > 100 µM (inactive) | > 100 µM (inactive) | –
13 | COc1ccc(/C=C2\N=C(SC)NC2=O)cc1 | 83.6 µM (inactive) | > 100 µM (inactive) | > 100 µM (inactive) | 91.8 µM (inactive) | > 100 µM (inactive) | > 100 µM (inactive) | > 100 µM (inactive) | > 100 µM (inactive) | > 100 µM (inactive) | 54.6 µM (inactive) | 80.7 µM (inactive) | 46.5 µM (inactive) | 27.8 µM (inactive) | > 100 µM (inactive) | 42.8 µM (inactive) | – | 86.1 µM (inactive) | > 10 µM (inactive) | –
14 | CCC(C)(C)C1CCC2c3c([nH]c4ccccc34)C3C(=O)N(c4ccc(OC)cc4)C(=O)C3C2C1 (configuration not stated) | 18.7 µM (inactive) | 16.5 µM (inactive) | 15.3 µM (inactive) | 11 µM (inactive) | 12.9 µM (inactive) | 20.8 µM (inactive) | 18.8 µM (inactive) | 10.2 µM (inactive) | 10.6 µM (inactive) | 3.48 µM (inactive) | 12.4 µM (inactive) | 3.62 µM (inactive) | 6.55 µM (inactive) | 9.08 µM (inactive) | 16.1 µM (inactive) | 11.2 µM (inactive) | 16.7 µM (inactive) | 5.16 µM (inactive) | –
15 | COc1ccc(-c2csc(Cc3nc4c(Br)cc(Br)cc4c(=O)n3-c3ccc(OC)cc3)n2)cc1 | 3.7 µM (inactive) | > 100 µM (inactive) | 56.4 µM (inactive) | 15.9 µM (inactive) | > 100 µM (inactive) | 59.4 µM (inactive) | 20.9 µM (inactive) | > 100 µM (inactive) | 28.3 µM (inactive) | 86.5 µM (inactive) | – | 25.5 µM (inactive) | – | 30.4 µM (inactive) | > 100 µM (inactive) | 43.7 µM (inactive) | 56.6 µM (inactive) | 0.333 µM (active) | –
16 | CCOc1ncn(-c2ccc(NC(=S)NC34CC5CC(CC(C5)C3)C4)cc2)n1 | > 100 µM (inactive) | – | > 100 µM (inactive) | > 100 µM (inactive) | 22.8 µM (inactive) | 48.4 µM (inactive) | 61.9 µM (inactive) | 35.2 µM (inactive) | 13.2 µM (inactive) | 8.47 µM (inactive) | > 100 µM (inactive) | > 100 µM (inactive) | > 100 µM (inactive) | 68.4 µM (inactive) | > 100 µM (inactive) | – | 59.2 µM (inactive) | > 100 µM (inactive) | > 100 µM (inactive)
